The values below come from ChEMBL document CHEMBL5608207, “Development of narrow-spectrum topoisomerase-targeting antibacterials against mycobacteria” (Eur J Med Chem, 2024).

What is called MIC90 is an inhibitory concentration at the 90% level, which refers to growth in some studies and to a panel of isolates in others. The term IC50 denotes the concentration that inhibits the measured activity by half. The low end stands for inhibition by little substance, the high end for a need for much substance.

≈ marks a conversion by molar mass, not a printed value. Calls of active or inactive are those of the source. The calls are words filed in the database; no cut-off is given here.

In experiment [1] the test system is Mycolicibacterium smegmatis. The experiment is described as follows: Antimycobacterial activity against Mycobacterium smegmatis MC2 incubated for 2 days by resazurin reduction microplate assay. The format is functional. The conditions noted are these: MC2, 48 h, time 2 day. (In general: The colour change of resazurin is a common sign of viable cells or microbes.)

Experiment [2] has as its system Mycobacteroides abscessus. The experiment in a line: Antimycobacterial activity against Mycobacterium abscessus RIVM incubated for 1 day by resazurin reduction microplate assay. It is filed as functional. The conditions noted are these: 24 h.
Experiment [3] relates to Mycobacterium tuberculosis. The experiment is described as follows: Antimycobacterial activity against Mycobacterium tuberculosis H37Rv ATCC 25618 assessed as reduction in viability incubated for 6 days by resazurin reduction microplate assay. It is filed as functional. The conditions noted are these: H37Rv ATCC 25618, 144 h, time 6 day.
For experiment [4], the system named is Escherichia coli. The experiment in a line: Antibacterial activity against Escherichia coli ATCC 25922 incubated for 18 hrs by serial broth microdilution method. It is filed as functional. In general terms: Dilution methods test growth across graded concentrations, often in twofold steps.
In experiment [5] the test system is Staphylococcus aureus. The experiment is described as follows: Antibacterial activity against Staphylococcus aureus ATCC 29213 incubated for 18 hrs by serial broth microdilution method. It is filed as functional.
Experiment [6] deals with Pseudomonas aeruginosa. The experiment in a line: Antibacterial activity against Pseudomonas aeruginosa ATCC 27853 incubated for 18 hrs by serial broth microdilution method. It is filed as functional.
The subject of experiment [7] is Acinetobacter baumannii. The experiment in a line: Antibacterial activity against Acinetobacter baumannii ATCC17978 incubated for 18 hrs by serial broth microdilution method. It is filed as functional.
Experiment [8] concerns Klebsiella pneumoniae. The experiment in a line: Antibacterial activity against Klebsiella pneumoniae ATCC10031 incubated for 18 hrs by serial broth microdilution method. It is filed as functional.
In experiment [9] the test system is Enterobacter cloacae. The experiment in a line: Antibacterial activity against Enterobacter cloacae ATCC13047 incubated for 18 hrs by serial broth microdilution method. It is filed as functional.
Experiment [10] addresses DNA topoisomerase 2-alpha (Homo sapiens) (UniProt P11388). The experiment in a line: Inhibition of human DNA topoisomerase II alpha assessed as residual activity at 100 uM using supercoiled pNO1 plasmid as substrate incubated for 30 mins by diamond dye staining based fluorescence microplate reader assay relative to control.
Experiment [11] shares this target. The experiment in a line: Inhibition of human DNA topoisomerase II alpha assessed as residual activity at 10 uM using supercoiled pNO1 plasmid as substrate incubated for 30 mins by diamond dye staining based fluorescence microplate reader assay relative to control.
Experiment [12] has as its system Mycobacterium tuberculosis. The experiment in a line: Antimycobacterial activity against GFP-expressing Mycobacterium tuberculosis H37Rv infected in PMA-treated THP-1 cells assessed as bacterial viability at 10 uM pre-infected for 3 hrs prior to gentamycin addition for 1 hr followed by washout and compound addition measured after 4 days by fluorescence microscopic analysis (reference value: 100%). The format is functional. The conditions noted are these: time 4 day.

Experiment [13] relates to Mycobacterium tuberculosis. The experiment in a line: Antimycobacterial activity against Mycobacterium tuberculosis H37Rv ATCC 25618 assessed as reduction in viability at 5 uM incubated for 6 days by resazurin reduction microplate assay. To be noted: time 6.0 day. The format is functional.
Experiment [14] in a line: Inhibition of Mycobacterium tuberculosis DNA gyrase B.

Sequence of DNA topoisomerase 2-alpha (Homo sapiens) (P11388 whole entry): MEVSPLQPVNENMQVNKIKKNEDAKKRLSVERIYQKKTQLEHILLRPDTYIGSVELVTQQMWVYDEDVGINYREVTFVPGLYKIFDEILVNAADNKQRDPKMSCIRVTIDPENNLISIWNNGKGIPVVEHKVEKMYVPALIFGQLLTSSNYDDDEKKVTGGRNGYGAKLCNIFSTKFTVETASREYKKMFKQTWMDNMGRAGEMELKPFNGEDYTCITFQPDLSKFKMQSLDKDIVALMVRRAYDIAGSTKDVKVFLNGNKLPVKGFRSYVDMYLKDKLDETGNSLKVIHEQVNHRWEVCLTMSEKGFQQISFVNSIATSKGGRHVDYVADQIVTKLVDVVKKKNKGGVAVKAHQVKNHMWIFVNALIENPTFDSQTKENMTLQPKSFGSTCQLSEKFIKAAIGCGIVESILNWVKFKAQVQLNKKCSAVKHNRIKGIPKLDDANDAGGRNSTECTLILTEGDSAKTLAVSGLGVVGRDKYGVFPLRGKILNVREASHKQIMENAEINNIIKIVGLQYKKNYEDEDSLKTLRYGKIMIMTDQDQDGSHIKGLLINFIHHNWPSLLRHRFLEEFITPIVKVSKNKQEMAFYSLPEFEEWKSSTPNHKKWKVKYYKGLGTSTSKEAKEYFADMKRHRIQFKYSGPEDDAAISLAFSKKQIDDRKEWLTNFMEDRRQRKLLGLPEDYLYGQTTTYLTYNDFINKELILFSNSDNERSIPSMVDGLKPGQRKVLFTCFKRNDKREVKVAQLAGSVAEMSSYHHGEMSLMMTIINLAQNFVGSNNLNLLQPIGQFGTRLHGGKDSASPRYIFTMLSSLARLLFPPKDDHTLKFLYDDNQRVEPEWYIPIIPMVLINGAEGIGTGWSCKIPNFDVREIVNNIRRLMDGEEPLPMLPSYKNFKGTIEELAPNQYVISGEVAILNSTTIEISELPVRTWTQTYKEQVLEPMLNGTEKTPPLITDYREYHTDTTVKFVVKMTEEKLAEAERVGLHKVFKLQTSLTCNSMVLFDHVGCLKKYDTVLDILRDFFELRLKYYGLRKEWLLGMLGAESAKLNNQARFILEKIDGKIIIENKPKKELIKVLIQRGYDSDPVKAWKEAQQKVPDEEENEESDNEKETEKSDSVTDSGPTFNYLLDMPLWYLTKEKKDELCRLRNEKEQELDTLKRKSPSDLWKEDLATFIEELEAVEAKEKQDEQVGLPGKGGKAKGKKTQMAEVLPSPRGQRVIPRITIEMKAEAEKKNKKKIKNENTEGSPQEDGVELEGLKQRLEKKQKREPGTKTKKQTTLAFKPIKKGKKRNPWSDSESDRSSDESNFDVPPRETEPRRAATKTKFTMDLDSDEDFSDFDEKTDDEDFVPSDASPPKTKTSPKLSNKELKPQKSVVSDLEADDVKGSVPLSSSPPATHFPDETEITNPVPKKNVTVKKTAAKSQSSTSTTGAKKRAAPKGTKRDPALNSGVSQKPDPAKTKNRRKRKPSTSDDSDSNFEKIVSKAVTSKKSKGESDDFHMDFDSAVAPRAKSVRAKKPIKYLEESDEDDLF

For `Cc1[nH]c(C(=O)Nc2nc3c(OC(CN4CCC(N)CC4)c4ccccc4)cc(C(=O)O)cc3s2)c(Cl)c1Cl` (stereo not drawn), the MIC90 in experiment [1] came out at 0.63 µM (≈ 0.371 µg/mL); in experiment [2] it was 0.63 µM (≈ 0.371 µg/mL); in experiment [3], 1.25 µM (≈ 0.736 µg/mL). Also, the result in experiment [4] was Active.
As to `Cc1[nH]c(C(=O)Nc2nc3c(OC(CN)c4ccccc4)cc(C(=O)O)cc3s2)c(Cl)c1Cl` (stereo not drawn), the figures for the MIC90 in [1], in experiment [2] and in experiment [3] were 1.25 µM (≈ 0.632 µg/mL), 0.63 µM (≈ 0.318 µg/mL) and 1.25 µM (≈ 0.632 µg/mL), respectively.
Turning to `Cc1[nH]c(C(=O)Nc2nc3c(OCC(C)N(C)C)cc(C(=O)O)cc3s2)c(Cl)c1Cl` (stereo not drawn), the values for the MIC90 in [1], in [2] and in experiment [3] were 10 µM (≈ 4.71 µg/mL), 0.63 µM (≈ 0.297 µg/mL) and 40 µM (≈ 18.9 µg/mL), respectively.
For the compound `Cc1[nH]c(C(=O)Nc2nc3c(OC(CN4CC[N+](C)(C)CC4)c4ccccc4)cc(C(=O)O)cc3s2)c(Cl)c1Cl` (stereo not drawn), the figures for the MIC90 in experiment [1], in [2] and in experiment [3] were 0.32 µM, 0.63 µM and 0.31 µM, respectively. Besides, the outcome in experiment [5] was inactive.
Turning to `Cc1[nH]c(C(=O)Nc2nc3c(OC(CN4CCOCC4)C4CC4)cc(C(=O)O)cc3s2)cc1F` (stereo not drawn), the MIC90 in [1] is 2.5 µM (≈ 1.22 µg/mL); in [2] it was 1.25 µM (≈ 0.611 µg/mL); in [3], over 20 µM; in experiment [4] it was over 131 µM; in experiment [5], 131 µM (≈ 64 µg/mL); in experiment [6], over 131 µM. For the same compound, the MIC90 in experiment [7] was over 131 µM; in [8], 33 µM (≈ 16.1 µg/mL); in [9] it was over 131 µM.
For `Cc1[nH]c(C(=O)Nc2nc3c(OC(CN4CCN(C)CC4)C4CC4)cc(C(=O)O)cc3s2)c(Cl)c1Cl` (stereo not drawn), the MIC90 in [1] is 0.63 µM (≈ 0.348 µg/mL); in [2] it was 0.63 µM (≈ 0.348 µg/mL); in [3] it was 5 µM (≈ 2.76 µg/mL); in [4], over 116 µM; in experiment [5], 14 µM (≈ 7.73 µg/mL); in experiment [6], over 116 µM. The MIC90 in experiment [7] is over 116 µM; in experiment [8], 7 µM (≈ 3.87 µg/mL); in experiment [9], over 116 µM. The Activity in experiment [10] and in experiment [11] was 99% each time.
As to `C[C@H]1COc2c(N3CCN(C)CC3)c(F)cc3c(=O)c(C(=O)O)cn1c23` [LEVOFLOXACIN ANHYDROUS], in experiment [12], the Activity worked out at 2.3%.
For `NNC(=O)c1ccncc1` [ISONIAZID], the Activity in [12] worked out at 4.9%.
As for `Cc1[nH]c(C(=O)Nc2nc3c(OCc4ccccc4)cc(C(=O)O)cc3s2)c(Cl)c1Cl`, in experiment [13], the result was inactive. This compound gave an IC50 in experiment [14] of 5.1 nM.
